Some test systems named below: MDA-MB-435; OVCAR-8 ovarian; RXF 393 renal; OVCAR-4 ovarian; NCI-H522 lung; TK-10 renal; T-47D breast; 786-0 renal; RPMI-8226 leukemia; BT-549 breast.
Test in all cases: growth of human tumour cells (NCI), 48 h

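All cell lines were grown in 96-well plates and treated with compound for 48 hours. GI50 = concentration required for 50% inhibition of growth. TGI is the concentration that stops growth completely.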 Where a SMILES comes first, the peptide text is derived from it. [ ]: non-standard residue; d: D form. The star is where a group is joined. Phe(4-NO2) = N[CH](Cc1ccc([N+](=O)[O-])cc1)C(=O)O; Boc = CC(C)(C)OC(=O)*

As to `Nc1ccc2c(=O)cc(-c3ccc(Br)s3)[nH]c2n1`, the TGI in the test with MDA-MB-435 is 1.39 µM; in the test on OVCAR-8 ovarian it was over 57.2 µM; with RXF 393 renal, over 100 µM; in the test on OVCAR-4 ovarian, over 100 µM; in the test with NCI-H522 lung, over 23.1 µM; with TK-10 renal, over 100 µM. For the same molecule, the TGI with T-47D breast, with 786-0 renal and with RPMI-8226 leukemia was over 100 µM throughout.
For the molecule `Cc1cc(S(=O)(=O)Nc2nc3cscc3c(=O)n2N)c(S)cc1Cl`, the TGI in the test with MDA-MB-435 is over 100 µM; in the test with OVCAR-8 ovarian, over 100 µM; in the test on BT-549 breast, over 100 µM; in the test with OVCAR-4 ovarian it was over 100 µM; with NCI-H522 lung, 77.9 µM; with TK-10 renal, over 100 µM. Besides, the TGI in the test on 786-0 renal and in the test with RPMI-8226 leukemia was over 100 µM each time.
As to `Cc1cn(C2CC(COCc3ccccc3)N(CCO[Si](C)(C)C(C)(C)C)O2)c(=O)[nH]c1=O` (stereo not given), the TGI in the test with MDA-MB-435 stood at 34.9 µM; in the test on OVCAR-8 ovarian it was 28.8 µM; in the test with RXF 393 renal, 29 µM; with OVCAR-4 ovarian, 33.4 µM; with NCI-H522 lung, 31.4 µM; in the test on TK-10 renal it was 27.3 µM. Also, the figures for the TGI with T-47D breast, in the test on 786-0 renal and in the test on RPMI-8226 leukemia were 31.1 µM, over 100 µM and 34.1 µM, respectively.
For `Cc1cc2nc3ccccc3n2c2ccccc12`, the TGI with MDA-MB-435, in the test on OVCAR-8 ovarian, in the test on RXF 393 renal, with OVCAR-4 ovarian, with NCI-H522 lung and in the test on TK-10 renal was over 10 µM throughout. In addition, the TGI in the test with T-47D breast, with 786-0 renal and in the test on RPMI-8226 leukemia was over 10 µM in each case.
Consider `CCOC(=O)CCC(NC(=O)C(Cc1ccc([N+](=O)[O-])cc1)NC(=O)OC(C)(C)C)C(=O)NC(CCC(=O)OCC)C(=O)OCC` (stereo not given) (Boc-[Phe(4-NO2)]-Glu(OEt)-Glu(OEt)-OEt; configuration not given here), for which the TGI with OVCAR-8 ovarian amounted to 40.3 µM; with RXF 393 renal, 30.2 µM; with BT-549 breast, 45.1 µM; in the test on TK-10 renal it was 30.1 µM; in the test on 786-0 renal it was 30.5 µM; in the test with RPMI-8226 leukemia, 43.3 µM.
On to `C/C(=N\Nc1nc2ccccc2[nH]1)c1ncccn1`, for which the TGI was over 39 µM with OVCAR-8 ovarian; over 32.5 µM in the test with RXF 393 renal; over 100 µM with BT-549 breast; over 100 µM in the test on OVCAR-4 ovarian; over 64.3 µM with NCI-H522 lung; over 78.1 µM with TK-10 renal. Besides, the TGI in the test on T-47D breast and in the test on 786-0 renal was over 100 µM in each case.
As to `N/N=C(/N)SCCCCCCCCCCS/C(N)=N/N`, the TGI was over 100 µM in the test with MDA-MB-435; 39.3 µM in the test with OVCAR-8 ovarian; 68.7 µM in the test with BT-549 breast; 65.6 µM with NCI-H522 lung; over 100 µM in the test on TK-10 renal; 35.4 µM in the test with T-47D breast. For the same molecule, the TGI is over 100 µM with 786-0 renal and 70.8 µM in the test with RPMI-8226 leukemia.
As to `Cc1ccc(N2C(=O)C3CSCN3C2=O)cc1` (stereo not given), the TGI with OVCAR-8 ovarian, with RXF 393 renal, in the test on OVCAR-4 ovarian, with NCI-H522 lung and in the test with RPMI-8226 leukemia was over 100 µM throughout. Moreover, in the test with RXF 393 renal, the GI50 was over 100 µM.
As for `c1ccc2c(Nc3ncco3)cccc2c1`, the TGI with MDA-MB-435, with OVCAR-8 ovarian, in the test on BT-549 breast, in the test with OVCAR-4 ovarian, with NCI-H522 lung and in the test with TK-10 renal was over 10 µM in each case. The TGI in the test with T-47D breast and with 786-0 renal was over 10 µM in each case.
For the molecule `C/C(=C\Cc1ccc(F)cc1)CCCCCC/C(C)=C/Cc1ccc(F)cc1`, the TGI was 39 µM in the test with MDA-MB-435; 39.6 µM with OVCAR-8 ovarian; 42.1 µM with RXF 393 renal; 79 µM in the test on BT-549 breast; 34.2 µM in the test with OVCAR-4 ovarian; 21 µM with NCI-H522 lung. Also, the TGI with TK-10 renal amounted to 29.5 µM; in the test with 786-0 renal, 21.9 µM.
As to `C=C(CN(CC)CC)C1(c2ccccc2)CC2(CCCC2)C(=O)O1` (stereo not given), the TGI in the test on MDA-MB-435, in the test with OVCAR-8 ovarian, in the test on RXF 393 renal, in the test on OVCAR-4 ovarian, in the test on NCI-H522 lung and with TK-10 renal was over 100 µM in each case. Besides, the TGI in the test with T-47D breast, in the test on 786-0 renal and in the test on RPMI-8226 leukemia was over 100 µM each time.
Take `COc1c(C)c(C/C=C(\C)CCCC(C)CCCC(C)CCCC(C)C)c(OC)c2ccccc12` (stereo not given): the TGI with MDA-MB-435, with OVCAR-8 ovarian, in the test with RXF 393 renal, in the test with BT-549 breast, in the test on OVCAR-4 ovarian and in the test with NCI-H522 lung was over 100 µM each time. Besides, the TGI in the test with TK-10 renal, in the test on 786-0 renal and with RPMI-8226 leukemia was over 100 µM each time.
For `COc1cc2c3c(n(C)c(=O)c2cc1OC)-c1cc2c(cc1/C3=C\CCCCCBr)OCO2`, in the test on MDA-MB-435, the GI50 is 19.2 µM. Further, the TGI with MDA-MB-435 was over 100 µM; in the test on OVCAR-8 ovarian, over 100 µM; in the test on BT-549 breast, over 100 µM; in the test with OVCAR-4 ovarian, over 100 µM; in the test on NCI-H522 lung it was 52.4 µM; with TK-10 renal, 55.8 µM. The TGI in the test on T-47D breast was 7.92 µM; in the test with 786-0 renal, over 100 µM; in the test with RPMI-8226 leukemia it was 26 µM.
Consider `O=S(=O)(/N=S(/Nc1ccccc1)C(F)(F)Cl)c1ccccc1` (stereo not given), for which the TGI in the test with MDA-MB-435, in the test on OVCAR-8 ovarian, with RXF 393 renal, with OVCAR-4 ovarian, in the test on TK-10 renal and in the test with T-47D breast was over 100 µM each time. In addition, the TGI in the test on 786-0 renal and with RPMI-8226 leukemia was over 100 µM each time.
In the case of `COc1ccc(/C=c2\[nH]c3nc(=O)c(N4CCCCC4)c(N)n3c2=O)cc1`, the TGI in the test on MDA-MB-435, with OVCAR-8 ovarian, with RXF 393 renal, in the test with OVCAR-4 ovarian, with NCI-H522 lung and in the test on TK-10 renal was over 100 µM in each case. Also, the TGI with T-47D breast, with 786-0 renal and in the test with RPMI-8226 leukemia was over 100 µM in each case.
With `Cc1cc2c(=O)c3ccc(Cl)cc3[nH]c2c(C(N)=O)c1C`, the TGI in the test on OVCAR-8 ovarian, in the test with OVCAR-4 ovarian, in the test on NCI-H522 lung, in the test with TK-10 renal, in the test on 786-0 renal and in the test on RPMI-8226 leukemia was over 100 µM throughout.

(Values after PubChem BioAssay (NCI).)
